Measurements published in patent US20230386637A1, “Polymorphisms for Predicting Treatment Response to Antipsychotic Drugs and Identifying New Drug Targets” (Northwestern University, priority 2018, published 2023).

Assays:
[1] = tested on: mouse prefrontal cortex; conditions: subeffective dose of SB269970 with subeffective dose of lurasidone; awake freely moving mice; cited from earlier work
[2] = tested on: acutely psychotic SCZ patients; assay: PEARL 1, 2 and PEARL 3 six-week placebo-controlled lurasidone trials, GWAS subjects of the meta-analysis; assay type: in vivo, human
Excerpt: Participants. The three clinical trials (Loebel et al., 2013a; Meltzer et al., 2011a; Nasrallah et al., 2013) used in this analysis were six-week, randomized, double-blind, placebo-controlled, multicenter registration trials, of DSM-IV acutely psychotic SCZ patients. The primary measure of efficacy, ΔPANSS-TOT, was the difference between baseline and last observation carried forward (LOCF) for those with at least one PANSS rating at, or after two weeks of treatment, (ΔPANSS-TOTLOCF6WK=PANSSTOTLOCF6WK-PANSS-TOTBaseline). The overall mean percentage of patients who achieved a priori determined response: ≥20% improvement in ΔPANSS-TOTLOCF6WK, was 61% in the PEARL 1, 2 and 3 studies. A total of 587 subjects with valid treatment response data and verified race from two ethnic populations, EUR and AFR, gave written informed consent to participate in genetics study (368 of 545 (67.5% with EUR ancestry and 219 of 403 (54.3% with AFR ancestry). These trials included a small number of patients randomized to treatment with olanzapine (PEARL 1) or quetiapine (PEARL 3). There were too few subjects with genetic data to include them as a separate group in this analysis.
PEARL 3 was considered an independent dataset due to a significant difference in PANSS-TOTBaseline, inclusion of a higher dose of lurasidone (160 mg/d), and an unequal variance, compared to PEARL 1/2, in ΔPANSS-TOTLOCF6WK by Leven test (Table 1). Samples from the corresponding placebo groups of all three trials were pooled together due to a relatively small sample size per trial and absence of significant differences in demographic and clinical data. Thus, three groups (PEARL 1+2, PEARL 3 and Placebo) per ethnicity were independently examined for quality control (QC), PCA for genetic architectures, and GWAS analyses before determining summary statistics at the individual SNP level. Both Kolmogorov-Smimov and Shapiro-Wilk tests indicated ΔPANSS-TOTLOCF6WK followed a normal distribution with skewness and kurtosis indices between −1 and +1. Therefore, no subjects were excluded from the analysis.

[3] = tested on: acutely psychotic SCZ patients; assay: Pearl 1 and Pearl 2 six-week randomized placebo-controlled lurasidone trials, GWAS sample; assay type: in vivo, human
Protocol: The clinical trials, subjects, and genotyping. The two clinical trials used for this analysis are both six-week, randomized, double-blind, lurasidone, placebo-controlled, multicenter registration trials, of DSM-IV acutely psychotic SCZ patients (Meltzer et al., 2011b; Nasrallah et al., 2013b). Patients who met TRS criteria were excluded. There were four fixed-dose treatment arms: lurasidone 40 and 120 mg/day, another atypical APD, olanzapine, 15 mg/day, and placebo (Pearl 1) (Meltzer et al., 2011b) and lurasidone 40, 80, and 120 mg/day, and placebo (Pearl 2) (Nasrallah et al., 2013b). The percentages of patients who achieved the a priori determined response: >20% improvement in ΔPANSS-T, was 61% in both the Pearl 1 and 2 studies. A total of 171/63 Caucasian and 131/54 AA for lurasidone/placebo-treated patients consented to participate in the genetic study. Ethnicity was validated as described below.
Evaluation of treatment response. The primary measure of efficacy, ΔPANSS-Total, was the difference between baseline and last observation carried forward (LOCF) for those with at least one PANSS rating after baseline. Results could be pooled across drug dosage arms because clinical change was not dose related (data not presented). The intention-to-treat (ITT) population included 157, 73, and 156 patients who received 40, 80, and 120 mg/day doses of lurasidone, respectively. Subjects within the 30th percentiles for greatest or least improvement in PANSS-Total (referred to as best and worst responders, hereafter) were included in a secondary analysis as previously done for iloperidone (Lavedan et al., 2009).
Population stratification. […] Population stratification and separation was employed throughout the following analyses. This process yielded 234 Caucasians, 171 and 63 in the lurasidone- and placebo-treated groups, respectively. There were […], 131 and 54 in the lurasidone- and placebo groups, respectively. Adjustment using the top three PCs within each ethnic group was applied to the association tests. The QQ plots indicated no marked deviations of the observed distributions from the expected null distributions with genome inflation factor=1.00 for both ethnic groups (FIG. 1c, d). Both Kolmogorov-Smimov and Shapiro-Wilk tests indicated ΔPANSS-T followed the normal distribution with skewness and kurtosis indices between-1 and +1. Therefore, no subjects had to be excluded from the analysis.

[4] = in vivo; cited from earlier work
[5] = African ancestry, Pearl 1, 2, n=124
[6] = African ancestry, Pearl 3, n=34
[7] = European ancestry, Pearl 1, 2, n=165
[8] = European ancestry, Pearl 3, n=99

SMILES: CC1CCN(CC[C@H]2CCCN2S(=O)(=O)c2cccc(O)c2)CC1 [SB269970]
- effect on lurasidone-induced dopamine efflux [1]: potentiated

SMILES: O=C1[C@@H]2[C@H]3CC[C@H](C3)[C@@H]2C(=O)N1C[C@@H]1CCCC[C@H]1CN1CCN(c2nsc3ccccc23)CC1 [lurasidone]
- % change of Psychopathology PANSE_NEG [2, 5]: −13.44(22.75) %
- % change of Psychopathology PANSS_POS [2, 5]: −25.80(24.91) %
- % change of Psychopathology PANSS_TOT [2, 5]: −16.55(17.79) %
- Δ change of Psychopathology PANSS_NEG [2, 5]: −3.26(4.82)
- Δ change of Psychopathology PANSS_POS [2, 5]: −5.15(4.93)
- Δ change of Psychopathology PANSS_TOT ([2]; African ancestry, Pearl 1, 2, n=124, lurasidone 40/80/120 mg/d): −15.88(16.97)
- % change of Psychopathology PANSE_NEG [2, 6]: −15.66(22.26) %
- % change of Psychopathology PANSS_POS [2, 6]: −30.04(22.51) %
- % change of Psychopathology PANSS_TOT [2, 6]: −22.47(19.05) %
- Δ change of Psychopathology PANSS_NEG [2, 6]: −3.85(4.88)
- Δ change of Psychopathology PANSS_POS [2, 6]: −5.71(4.35)
- Δ change of Psychopathology PANSS_TOT ([2]; African ancestry, Pearl 3, n=34, lurasidone 80/160 mg/d): −21.95(18.15)
- % change of Psychopathology PANSS_NEG [2, 7]: −13.44(22.75) %
- % change of Psychopathology PANSS_POS [2, 7]: −25.80(24.91) %
- % change of Psychopathology PANSS_TOT [2, 7]: −16.55(17.79) %
- Δ change of Psychopathology PANSS_NEG [2, 7]: −3.26(4.82)
- Δ change of Psychopathology PANSS_POS [2, 7]: −5.15(4.93)
- Δ change of Psychopathology PANSS_TOT ([2]; European ancestry, Pearl 1, 2, n=165, lurasidone 40/80/120 mg/d): −15.88(16.97)
- % change of Psychopathology PANSS_NEG [2, 8]: −15.66(22.26) %
- % change of Psychopathology PANSS_POS [2, 8]: −30.04(22.51) %
- % change of Psychopathology PANSS_TOT [2, 8]: −22.47(19.05) %
- Δ change of Psychopathology PANSS_NEG [2, 8]: −3.85(4.88)
- Δ change of Psychopathology PANSS_POS [2, 8]: −5.71(4.35)
- Δ change of Psychopathology PANSS_TOT ([2]; European ancestry, Pearl 3, n=99, lurasidone 80/160 mg/d): −21.95(18.15)
- overall mean percentage of patients who achieved a priori determined response: ≥20% improvement in ΔPANSS-TOTLOCF6WK ([2]; PEARL 1, 2 and 3 studies): 61%
- PANSS anxiety/depression Change (LOCP) ([3]; African-Americans, n=131): −3.3 ± 4.1
- PANSS disorganization Change (LOCF) ([3]; African-Americans, n=131): −4.0 ± 4.4
- PANSS excited Change (LOCF) ([3]; African-Americans, n=131): −1.2 ± 4.0
- PANSS negative Change (LOCF) ([3]; African-Americans, n=131): −4.2 ± 4.6
- PANSS positive Change (LOCF) ([3]; African-Americans, n=131): −5.3 ± 4.4
- PANSS total Change (LOCF) ([3]; African-Americans, n=131): −18.0 ± 16.3
- PANSS anxiety/depression Change (LOCP) ([3]; Caucasians, n=171): −2.1 ± 4.2
- PANSS disorganization Change (LOCF) ([3]; Caucasians, n=171): −4.0 ± 4.2
- PANSS excited Change (LOCF) ([3]; Caucasians, n=171): −1.4 ± 3.7
- PANSS negative Change (LOCF) ([3]; Caucasians, n=171): −3.3 ± 4.8
- PANSS positive Change (LOCF) ([3]; Caucasians, n=171): −5.1 ± 4.9
- PANSS total Change (LOCF) ([3]; Caucasians, n=171): −15.9 ± 17.0
- CGI Change (LOCF) ([3]; Caucasians, n=171, lurasidone 40/80/120 mg, baseline to LOCF, mean ± SD): −1.0 ± 1.0
- percentages of patients who achieved the a priori determined response: >20% improvement in ΔPANSS-T ([3]; both the Pearl 1 and 2 studies): 61%
- side effect profile [4]: relatively benign side effect profile
